The target of data set [1] is rat mGlu1 (Rattus norvegicus, UniProt P23385). Briefly: mGlu1 calcium mobilization PAM assay. Type of data set: cell-based.
The target in data set [2] is T1, 1A2 (Homo sapiens, UniProt P05177).
T1 construct: 0.1 mg/mL human liver microsomes (HLM) and Substrate Mix; from tissue; host or cells: human liver microsomes
Briefly: inhibition of cytochrome P450 enzymes. Type of data set: in vitro ADME. The settings on record: human liver microsomes; read-out: CYP450 1A2 inhibition. The method, then: (§1) A cocktail of substrates for cytochrome P450 enzymes (1A2: Phenacetin, 10 μM; 2C9: Diclofenac, 5 μM; 2D6: Dextromethorphan, 5 μM; 3A4: Midazolam, 2 μM) were mixed for cocktail analysis. For P450 2C19, the substrate stock (Mephenytoin, 40 μM)and substrate mix were prepared separately for discrete analysis. The positive control for pan-P450 inhibition (miconazole) was included alongside each test compound in analysis.
(§2) A reaction mixture of 100 mM Kpi, pH 7.4, 0.1 mg/mL human liver microsomes (HLM) and Substrate Mix is prepared and aliquoted into a 96-deepwell block. Test compound and positive control (in duplicate) were then added such that the final concentration of test compound ranged from 0.1–30 μM. The plate was vortexed briefly and then preincubated at 37 °C while shaking for 15 min. The reaction was initiated with the addition of NADPH (1 mM final concentration). The incubation continued for 8 min and the reaction quenched by 2x volume of cold acetonitrile containing internal standard (50 nM carbamazepine). The plate was centrifuged for 10 min (4000 rcf, 4 °C) and the resulting supernatant diluted 1:1 with water for LC/MS/MS analysis. A 12 point standard curve of substrate metabolites over the range of 0.98 nM to 2000 nM.
(§3) Samples were analyzed via electrospray ionization (ESI) on an AB Sciex API-4000 (Foster City, CA) triple-quadrupole instrument that was coupled with Shimadzu LC-10AD pumps (Columbia, MD) and a Leap Technologies CTC PAL autosampler (Carrboro, NC). Analytes were separated by gradient elution using a Fortis C18 3.0 × 50 mm, 3 μm column (Fortis Technologies Ltd., Cheshire, UK) thermostated at 40 °C. […]
(§4) The IC50 values for each compound were obtained for the individual CYP enzymes by quantitating the inhibition of metabolite formation for each probe substrate. A 0 μM compound condition (or control) was set to 100% enzymatic activity and the effect of increasing test compound concentrations on enzymatic activity could then be calculated from the % of control activity. […]

In data set [3] the target is T2, 2C9 (Homo sapiens, UniProt P11712).
T2 construct: 0.1 mg/mL human liver microsomes (HLM) and Substrate Mix; from tissue; host or cells: human liver microsomes
In words: inhibition of cytochrome P450 enzymes. Type of data set: in vitro ADME. Conditions: human liver microsomes; read-out: CYP450 2C9 inhibition. The method, then:
as §1, §2, §3, §4

For data set [4], the target named is T3, 2D6 (Homo sapiens, UniProt P10635).
T3 construct: 0.1 mg/mL human liver microsomes (HLM) and Substrate Mix; from tissue; host or cells: human liver microsomes
Briefly: inhibition of cytochrome P450 enzymes. Type of data set: in vitro ADME. The settings on record: human liver microsomes; read-out: CYP450 2D6 inhibition. The method, then: as §1, §2, §3, §4

Data set [5] concerns the target T4, 3A4 (Homo sapiens, UniProt P08684). In words: 3A4 mechanism-based inhibition. In kind it is in vitro ADME.
Data set [6] in a line: satellite PK for NOR. Type of data set: in vivo. Conditions: brain, rat, 210 min postdose. From the text: Based on our previous work with the mGlu1 PAM 4,[6]−[9],[14]−[19] we first evaluated the ability of 19d to reverse MK-801 disruptions of novel object recognition (NOR) in rats (Figure 6).
Data set [7] has as its target T5, AT1 (Homo sapiens, UniProt P30556).
T5 construct: Eurofins
Briefly: Eurofins radioligand binding panel. Conditions: antagonist radioligand. The source says: (§5) Table S1. Eurofins Lead Profiling Screen Data
(§6) This is a radioligand binding panel of 80 targets including GPCRs, ion channels, transporters and nuclear hormones. Biochemical assay results are presented as the percent inhibition of specific […]
(§7) Results showing an inhibition or stimulation higher than 50% are considered to represent significant effect and are highlighted […]
(§8) Target / Protein Species % Inhibition at 10 […]

Data set [8] addresses T6, AT2 (Homo sapiens, UniProt P50052).
T6 construct: Eurofins (panel run as a service)
In words: Eurofins radioligand binding panel. The settings on record: agonist radioligand.
From the text: as §5, §6, §7, §8

In data set [9] the target is T7, Adenosine A2A (Homo sapiens, UniProt P29274).
T7 construct: Eurofins
In words: Eurofins radioligand binding panel. Conditions: agonist radioligand.
From the text: as §5, §6, §7, §8

For data set [10], the target named is T8, Adenosine A3 (Homo sapiens, UniProt P0DMS8).
T8 construct: Eurofins
Briefly: Eurofins radioligand binding panel. The settings on record: agonist radioligand.
From the text: as §5, §6, §7, §8

Data set [11] has as its target T9, Adrenergic beta 1 (Homo sapiens, UniProt P08588).
T9 construct: Eurofins
Briefly: Eurofins radioligand binding panel. Conditions: agonist radioligand.
From the text: as §5, §6, §7, §8

The target in data set [12] is T10, Adrenergic beta 2 (Homo sapiens, UniProt P07550).
T10 construct: Eurofins
Briefly: Eurofins radioligand binding panel. The settings on record: antagonist radioligand.
From the text: as §5, §6, §7, §8

The target in data set [13] is T11, B2 (Homo sapiens, UniProt P30411).
T11 construct: Eurofins (panel run as a service)
In words: Eurofins radioligand binding panel. Conditions: agonist radioligand.
From the text: as §5, §6, §7, §8

Data set [14] relates to BZD (central). In words: Eurofins radioligand binding panel. The settings on record: agonist radioligand.
From the text: as §5, §6, §7, §8

For data set [15], the target named is T12, BZD (peripheral) (Rattus norvegicus, UniProt P16257).
T12 construct: Eurofins (panel run as a service)
In words: Eurofins radioligand binding panel. The settings on record: antagonist radioligand.
From the text: as §5, §6, §7, §8

Data set [16] concerns the target T13, CB1 (Homo sapiens, UniProt P21554).
T13 construct: Eurofins (panel run as a service)
Briefly: Eurofins radioligand binding panel. The settings on record: agonist radioligand.
From the text: as §5, §6, §7, §8

Data set [17] concerns the target T14, CCK1 (CCKA) (Homo sapiens, UniProt P32238).
T14 construct: Eurofins (panel run as a service)
In words: Eurofins radioligand binding panel. The settings on record: agonist radioligand.
From the text: as §5, §6, §7, §8

The target of data set [18] is T15, CGRP (Homo sapiens, UniProt O60894+Q16602).
T15 construct: Eurofins (panel run as a service)
In words: Eurofins radioligand binding panel. Conditions: agonist radioligand.
From the text: as §5, §6, §7, §8

In data set [19] the target is T16, CCK2 (CCKB) (Homo sapiens, UniProt P32239).
T16 construct: Eurofins (panel run as a service)
Briefly: Eurofins radioligand binding panel. The settings on record: agonist radioligand.
From the text: as §5, §6, §7, §8
CCK2 (CCKB) (agonist radioligand) human -4

The target in data set [20] is T4, 3A4. Briefly: inhibition of cytochrome P450 enzymes. Set-up: 0.1 mg/mL human liver microsomes (HLM) and Substrate Mix; from tissue; host or cells: human liver microsomes. Conditions: human liver microsomes; read-out: CYP450 3A4 inhibition. In kind it is in vitro ADME. The method, then: as §1
A reaction mixture of 100 mM Kpi, pH 7.4, 0.1 mg/mL human liver microsomes (HLM) and Substrate Mix is prepared and aliquoted into a 96-deepwell block. Test compound and positive control (in duplicate) were then added such that the final concentration of test compound ranged from 0.1–30 μM. […]
Samples were analyzed via electrospray ionization (ESI) on an AB Sciex API-4000 (Foster City, CA) triple-quadrupole instrument that was coupled with Shimadzu LC-10AD pumps (Columbia, MD) and a Leap Technologies CTC PAL autosampler (Carrboro, NC). […]
as §4

Sequence of rat mGlu1 (P23385 19-1199): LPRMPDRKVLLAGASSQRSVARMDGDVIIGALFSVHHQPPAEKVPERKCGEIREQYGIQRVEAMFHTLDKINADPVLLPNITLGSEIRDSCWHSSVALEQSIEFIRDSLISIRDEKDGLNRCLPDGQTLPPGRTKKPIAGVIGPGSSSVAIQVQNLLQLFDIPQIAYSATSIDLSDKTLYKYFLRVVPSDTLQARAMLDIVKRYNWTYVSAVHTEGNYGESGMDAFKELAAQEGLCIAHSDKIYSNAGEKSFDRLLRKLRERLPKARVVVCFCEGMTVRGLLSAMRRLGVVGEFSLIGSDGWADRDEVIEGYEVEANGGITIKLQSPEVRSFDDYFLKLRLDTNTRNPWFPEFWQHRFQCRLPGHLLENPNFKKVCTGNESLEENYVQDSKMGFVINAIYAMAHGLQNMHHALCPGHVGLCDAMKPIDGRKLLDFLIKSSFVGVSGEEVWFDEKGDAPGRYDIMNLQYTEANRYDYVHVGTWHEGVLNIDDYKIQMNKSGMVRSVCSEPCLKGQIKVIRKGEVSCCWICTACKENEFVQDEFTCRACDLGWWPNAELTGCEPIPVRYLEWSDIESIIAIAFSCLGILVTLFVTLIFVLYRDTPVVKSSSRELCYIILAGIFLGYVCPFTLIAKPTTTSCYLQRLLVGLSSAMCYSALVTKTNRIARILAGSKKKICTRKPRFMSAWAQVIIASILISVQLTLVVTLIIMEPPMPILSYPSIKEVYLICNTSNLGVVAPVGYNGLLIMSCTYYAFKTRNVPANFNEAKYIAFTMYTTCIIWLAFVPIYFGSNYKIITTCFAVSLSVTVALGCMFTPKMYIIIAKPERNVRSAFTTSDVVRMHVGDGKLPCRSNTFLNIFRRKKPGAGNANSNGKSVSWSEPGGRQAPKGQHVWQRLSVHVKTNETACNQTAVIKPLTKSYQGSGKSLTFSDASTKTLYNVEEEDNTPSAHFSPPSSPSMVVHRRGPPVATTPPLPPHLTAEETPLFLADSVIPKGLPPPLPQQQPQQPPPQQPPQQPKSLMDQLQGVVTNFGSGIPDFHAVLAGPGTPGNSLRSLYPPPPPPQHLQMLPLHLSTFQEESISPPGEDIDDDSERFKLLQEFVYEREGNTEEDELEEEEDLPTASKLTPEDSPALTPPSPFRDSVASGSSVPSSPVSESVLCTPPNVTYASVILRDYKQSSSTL
T4 sequence (P08684 whole entry): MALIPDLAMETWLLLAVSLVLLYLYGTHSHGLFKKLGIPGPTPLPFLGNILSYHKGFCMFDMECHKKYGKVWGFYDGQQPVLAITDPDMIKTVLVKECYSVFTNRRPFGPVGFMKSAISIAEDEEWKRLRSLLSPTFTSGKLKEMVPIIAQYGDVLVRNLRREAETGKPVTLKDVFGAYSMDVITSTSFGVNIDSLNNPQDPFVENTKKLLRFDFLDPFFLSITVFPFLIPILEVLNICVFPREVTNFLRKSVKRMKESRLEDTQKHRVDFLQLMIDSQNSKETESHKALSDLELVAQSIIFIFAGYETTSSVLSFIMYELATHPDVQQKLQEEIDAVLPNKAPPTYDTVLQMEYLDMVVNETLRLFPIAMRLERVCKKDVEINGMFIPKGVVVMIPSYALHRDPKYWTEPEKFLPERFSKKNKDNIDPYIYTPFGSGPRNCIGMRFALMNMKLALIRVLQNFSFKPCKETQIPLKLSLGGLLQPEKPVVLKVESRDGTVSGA
T8 sequence (P0DMS8 whole entry): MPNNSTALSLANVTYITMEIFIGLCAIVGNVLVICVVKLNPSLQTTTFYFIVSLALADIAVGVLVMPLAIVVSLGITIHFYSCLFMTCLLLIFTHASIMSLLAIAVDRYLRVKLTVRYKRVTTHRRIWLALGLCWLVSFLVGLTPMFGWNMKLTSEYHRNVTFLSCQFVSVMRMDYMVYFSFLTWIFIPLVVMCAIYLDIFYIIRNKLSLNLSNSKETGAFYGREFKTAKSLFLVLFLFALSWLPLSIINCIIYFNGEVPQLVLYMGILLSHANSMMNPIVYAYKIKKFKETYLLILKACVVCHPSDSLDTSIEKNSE
T10 sequence (P07550 whole entry): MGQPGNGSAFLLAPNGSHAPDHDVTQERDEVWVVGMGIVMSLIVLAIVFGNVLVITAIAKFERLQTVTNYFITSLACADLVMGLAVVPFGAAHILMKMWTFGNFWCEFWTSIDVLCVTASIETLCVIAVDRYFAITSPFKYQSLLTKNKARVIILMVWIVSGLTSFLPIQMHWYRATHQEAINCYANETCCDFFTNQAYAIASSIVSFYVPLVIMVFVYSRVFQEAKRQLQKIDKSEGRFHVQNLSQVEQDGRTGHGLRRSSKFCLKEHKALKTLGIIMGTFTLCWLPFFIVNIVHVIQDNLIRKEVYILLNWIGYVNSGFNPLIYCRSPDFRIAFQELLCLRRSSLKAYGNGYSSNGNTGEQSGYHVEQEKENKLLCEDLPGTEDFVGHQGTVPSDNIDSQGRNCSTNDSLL
T9 sequence (P08588 whole entry): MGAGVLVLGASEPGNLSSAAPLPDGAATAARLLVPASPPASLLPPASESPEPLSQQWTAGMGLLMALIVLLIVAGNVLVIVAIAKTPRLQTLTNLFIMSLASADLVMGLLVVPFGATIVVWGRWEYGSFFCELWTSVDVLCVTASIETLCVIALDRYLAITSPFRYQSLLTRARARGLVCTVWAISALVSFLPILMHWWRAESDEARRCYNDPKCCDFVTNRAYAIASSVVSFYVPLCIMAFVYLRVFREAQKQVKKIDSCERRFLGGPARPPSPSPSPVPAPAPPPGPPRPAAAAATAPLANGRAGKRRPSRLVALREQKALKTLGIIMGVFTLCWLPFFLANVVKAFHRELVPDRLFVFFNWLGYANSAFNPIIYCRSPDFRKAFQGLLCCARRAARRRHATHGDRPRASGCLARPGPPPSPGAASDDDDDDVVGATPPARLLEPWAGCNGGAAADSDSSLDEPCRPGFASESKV
T1 sequence (P05177 whole entry): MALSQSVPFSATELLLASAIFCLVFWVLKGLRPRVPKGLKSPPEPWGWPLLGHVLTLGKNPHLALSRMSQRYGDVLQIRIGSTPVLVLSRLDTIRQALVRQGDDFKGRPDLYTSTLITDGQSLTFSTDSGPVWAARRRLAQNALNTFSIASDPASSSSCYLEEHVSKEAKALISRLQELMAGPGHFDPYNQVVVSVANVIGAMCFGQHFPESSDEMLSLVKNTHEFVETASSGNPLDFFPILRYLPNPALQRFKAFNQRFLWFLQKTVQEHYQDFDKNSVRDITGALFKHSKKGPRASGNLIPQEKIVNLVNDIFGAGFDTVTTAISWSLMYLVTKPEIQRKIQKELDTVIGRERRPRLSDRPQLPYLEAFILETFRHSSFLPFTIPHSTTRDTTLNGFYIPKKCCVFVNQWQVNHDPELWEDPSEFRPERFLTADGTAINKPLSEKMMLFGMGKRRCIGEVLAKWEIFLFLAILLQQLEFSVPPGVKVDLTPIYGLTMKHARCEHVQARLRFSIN
T14 sequence (P32238 whole entry): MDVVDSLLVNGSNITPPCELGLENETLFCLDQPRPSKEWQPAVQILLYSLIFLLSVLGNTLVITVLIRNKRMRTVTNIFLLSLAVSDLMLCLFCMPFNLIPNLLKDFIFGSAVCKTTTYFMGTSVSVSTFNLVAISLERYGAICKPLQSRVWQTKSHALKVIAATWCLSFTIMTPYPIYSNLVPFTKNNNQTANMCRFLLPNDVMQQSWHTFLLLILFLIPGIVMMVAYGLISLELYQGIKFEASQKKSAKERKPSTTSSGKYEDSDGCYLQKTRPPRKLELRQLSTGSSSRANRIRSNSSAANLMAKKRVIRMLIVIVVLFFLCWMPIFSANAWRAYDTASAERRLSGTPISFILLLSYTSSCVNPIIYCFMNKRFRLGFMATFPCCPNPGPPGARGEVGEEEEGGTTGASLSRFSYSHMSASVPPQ
T11 sequence (P30411 whole entry): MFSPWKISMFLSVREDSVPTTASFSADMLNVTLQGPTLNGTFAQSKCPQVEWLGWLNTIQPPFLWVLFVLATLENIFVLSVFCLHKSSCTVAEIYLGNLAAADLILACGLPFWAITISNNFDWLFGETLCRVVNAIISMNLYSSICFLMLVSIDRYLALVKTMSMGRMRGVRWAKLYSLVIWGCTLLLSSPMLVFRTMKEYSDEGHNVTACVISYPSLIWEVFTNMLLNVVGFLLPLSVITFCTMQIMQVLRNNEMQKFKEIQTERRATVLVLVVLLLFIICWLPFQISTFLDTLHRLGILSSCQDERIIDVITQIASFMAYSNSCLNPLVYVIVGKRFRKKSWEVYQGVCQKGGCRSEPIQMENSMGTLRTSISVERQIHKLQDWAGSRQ
T5 sequence (P30556 whole entry): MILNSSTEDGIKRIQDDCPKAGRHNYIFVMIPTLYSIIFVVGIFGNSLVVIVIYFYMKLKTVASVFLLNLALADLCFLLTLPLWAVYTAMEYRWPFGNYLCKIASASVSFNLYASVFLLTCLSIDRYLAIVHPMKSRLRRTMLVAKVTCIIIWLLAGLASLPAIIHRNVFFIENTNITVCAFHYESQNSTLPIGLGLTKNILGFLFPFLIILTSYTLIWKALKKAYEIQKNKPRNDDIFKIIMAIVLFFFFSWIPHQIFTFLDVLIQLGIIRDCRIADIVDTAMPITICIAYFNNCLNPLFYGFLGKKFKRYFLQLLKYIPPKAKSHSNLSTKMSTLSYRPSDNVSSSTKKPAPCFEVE
T6 sequence (P50052 whole entry): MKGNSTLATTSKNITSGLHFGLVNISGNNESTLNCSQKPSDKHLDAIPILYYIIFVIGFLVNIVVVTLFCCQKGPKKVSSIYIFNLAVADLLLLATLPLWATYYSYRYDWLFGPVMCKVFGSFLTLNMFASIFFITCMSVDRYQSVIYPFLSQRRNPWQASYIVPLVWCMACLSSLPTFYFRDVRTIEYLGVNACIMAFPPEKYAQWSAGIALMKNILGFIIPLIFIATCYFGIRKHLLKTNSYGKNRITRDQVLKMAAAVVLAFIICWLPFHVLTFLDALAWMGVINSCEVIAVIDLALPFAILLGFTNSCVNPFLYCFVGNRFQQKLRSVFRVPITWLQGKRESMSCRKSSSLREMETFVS

Regarding `Cn1nc(-c2ccnn2C)cc1CNC(=O)c1cc(-c2ccco2)ccc1Cl` [Compound 19d, 2-Chloro-N-((1,2′-dimethyl-1H,2’H-[3,3′-bipyrazol]-5-yl)methyl)-5-(furan-2-yl)benzamide], the concentration giving a half-maximal response (EC50) in data set [1] (PAM, calcium flux) came to 0.046 µM. In addition, in data set [1] (PAM, calcium flux), the “rat mGlu1 Glumax” value is 124%. Besides, the “rat mGlu1 pEC50” value in data set [1] (n = 110) is 7.39 ± 0.02. Further, the IC50 was 17 µM in data set [2], 6.4 µM in data set [3], 28 µM in [4] and 22 µM in [20]. Moreover, the 3A4 mechanism-based inhibition result in data set [5] is reported as “no 3A4 mechanism-based inhibition”. For the same compound, the concentration at 210 min in [6] (10 mg/kg PO, read-out: free brain concentration) turned out to be 73 nM. The compound also registered a Kp at 3.5 h in data set [6] (PO) of 0.34. Moreover, the inhibition at 10 µM in data set [7] was -1%; in [8] it was 2%; in [9], -1%; in [10], 23%; in data set [11], 1%; in [12], -1%. For the same compound, the inhibition at 10 µM is 7% in [13]; 96% in data set [15]; 0% in [16]; 7% in [17]; 1% in [18]; -4% in data set [19]. Also, the “% Inhibition at 10 µM” value in data set [14] is reported as 5%.

For the origin of these results see paper PMC11684029, “Discovery of VU6024578/BI02982816: An mGlu1 Positive Allosteric Modulator with Efficacy in Preclinical Antipsychotic and Cognition Models” (Journal of Medicinal Chemistry, 2024).
